Data: US20250064773A1, “TARGETING ERO1 ALPHA WITH AURONE DERIVATIVES” (West Virginia University Board of Governors on behalf of …, priority 2021, published 2025)

Tested on: HCC4006
Assay: MTT viability assay, HCC4006
Format: cell-based
Details: Homo sapiens, NSCLC (adenocarcinoma), read-out: IC50 Avg ± s.d. (n = 3), HCC4006
Description: Cell Lines: PC-9 cell line used was obtained from Sigma Aldrich and grown in RPMI 1640 medium with 10% fetal bovine serum and 1% penicillin/streptomycin. HCC4006, U266, MM1.s, and Beas-2B cell lines were obtained from ATCC and cultured in either RPMI 1640 or DMEM with 10% fetal bovine serum and 1% penicillin/streptomycin. All cell lines were also checked for mycoplasma every six months and subjected to short tandem repeat (STR) analysis for cell line validation. CRISPR Cas9: CRISPR Guide RNA 2 targeting ERO1α and CRISPR Guide RNA 4 were purchased from Genscript in the pLentiCRISPR V2 plasmid containing puromycin/ampicillin selection marker. Lentivirus was made from HEK 293T cells by co-transfection with GuideRNA of interest, pVSVG, and pPAX2 plasmids. […] Plate was then read on the BioTek Cytation 5 at 530/590 nm. […] Plate was then read at 570 nm. Treated wells were all compared to DMSO control wells to calculate percent growth inhibition and the IC50 was calculated using GraphPad (log(inhibitor) vs growth inhibition). […] Images were then quantified using ImageJ. […] Cells were aliquoted at 1 million cells per PCR tube in PBS and heated in Bio-Rad T100 thermal cycler at indicated temperatures (RT, 46° C., 48° C., 50° C., 52° C., 54° C., 56°, 58° C., and 60° C.) for 3 minutes and aggregation temperature was determined by western blot analysis. […]

Structure (SMILES): CN(C)c1ccc(/C=C2\Oc3cc(O)ccc3C2=O)cc1 [Compound T151742]
- IC50: 18.5 ± 14.7 µM
